# Reference: ChEMBL document CHEMBL1146817, “Quinoxaline N,N'-dioxide derivatives and related compounds as growth inhibitors of Trypanosoma cruzi. Structure-activity relationships” (Bioorg Med Chem Lett, 2004)
# Calls of active or inactive are those of the source. The calls are words filed in the database; no cut-off is given here.
# Tests used:
# Assay type in all cases: functional
# Trypanosoma cruzi [1] = test: In vitro percent inhibition of growth against epimastigote form of Trypanosoma cruzi (Tulahuen strain) at 25 uM
# Trypanosoma cruzi [2] = test: In vitro inhibitory dose against epimastigote form of Trypanosoma cruzi Tulahuen strain; details: read-out: ID50 (the source's name)
# Trypanosoma cruzi [3] = test: In vitro inhibitory dose against epimastigote form of Trypanosoma cruzi Brener strain; details: read-out: ID50 (the source's name)
# [4] = target: T1, Glutathione reductase, mitochondrial (Homo sapiens) (UniProt P00390); test: In vitro inhibition against human glutathione reductase; IA denotes inactive
# T1 sequence (whole entry): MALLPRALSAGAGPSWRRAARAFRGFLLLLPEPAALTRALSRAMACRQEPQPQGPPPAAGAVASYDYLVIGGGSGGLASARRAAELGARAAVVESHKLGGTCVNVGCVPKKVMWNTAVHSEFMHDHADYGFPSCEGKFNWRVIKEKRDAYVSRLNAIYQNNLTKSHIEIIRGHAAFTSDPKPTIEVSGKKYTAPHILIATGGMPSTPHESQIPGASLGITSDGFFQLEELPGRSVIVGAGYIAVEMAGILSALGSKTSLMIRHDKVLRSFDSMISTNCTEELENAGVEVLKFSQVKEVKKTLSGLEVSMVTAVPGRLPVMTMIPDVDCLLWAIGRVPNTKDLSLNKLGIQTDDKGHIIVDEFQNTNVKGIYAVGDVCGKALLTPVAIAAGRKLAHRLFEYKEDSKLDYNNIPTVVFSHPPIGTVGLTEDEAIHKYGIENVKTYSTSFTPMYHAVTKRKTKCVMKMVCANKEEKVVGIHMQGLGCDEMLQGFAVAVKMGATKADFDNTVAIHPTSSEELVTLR
SMILES,PGI (Trypanosoma cruzi [1]) [%],further results
Cc1ccc(Nc2cc3c(cc2C#N)[n+]([O-])c2cc(Cl)ccc2[n+]3[O-])cc1,19,
Cc1cc2c(cc1C)[n+]([O-])c1cc(C(=O)N3CCN(c4ccc([N+](=O)[O-])cc4)CC3)c(C)cc1[n+]2[O-],1,
COC(=O)N/N=C/c1ccc2c(c1)[n+]([O-])c1cc(C)c(C)cc1[n+]2[O-],28,
Cc1cc2c(cc1C(=O)c1ccccc1)[n+]([O-])c1cc(Cl)c(Cl)cc1[n+]2[O-],91,IC50 (Trypanosoma cruzi [2]): 11.8 µM; IC50 (Trypanosoma cruzi [3]): 12.5 µM
Cc1cc2nc3cc(Cl)c(C#N)cc3nc2cc1C,81,IC50 (Trypanosoma cruzi [2]): 19.6 µM; IC50 (Trypanosoma cruzi [3]): 3 µM
N#Cc1cc2c(cc1N)[n+]([O-])c1cc(Cl)c(Cl)cc1[n+]2[O-],25,
Cc1cc2c(cc1Sc1ccccc1)[n+]([O-])c1cc(Cl)c(Cl)cc1[n+]2[O-],93,IC50 (Trypanosoma cruzi [2]): 6.5 µM; IC50 (Trypanosoma cruzi [3]): 4.5 µM
N#Cc1cc2c(cc1N1CCN(c3cccc(C(F)(F)F)c3)CC1)[n+]([O-])c1ccc(Cl)cc1[n+]2[O-],94,IC50 (Trypanosoma cruzi [2]): 6.7 µM; IC50 (Trypanosoma cruzi [3]): 7 µM
COc1cc2c(cc1Cl)[n+]([O-])c1cc(N3CCN(c4ccc([N+](=O)[O-])cc4)CC3)c(C#N)cc1[n+]2[O-],6,
COC(=O)N/N=C/c1ccc2c(c1)[n+]([O-])c1cc(C#N)c(N)cc1[n+]2[O-],19,
COc1ccc2[nH]c3nnc(N)c-3nc2c1,0,
Cc1cc2c(cc1C)[n+]([O-])c1cc(C(=O)N3CCN(c4ccccc4)CC3)c(C)cc1[n+]2[O-],0,
Nc1nc(N)c2nc3ccccc3nc2n1,0,
Cc1ccc2c(c1)[n+]([O-])c1cc(C#N)c(N)cc1[n+]2[O-],5,
N#Cc1cc2nc3cc(Cl)ccc3nc2cc1Cl,100,IC50 (Trypanosoma cruzi [2]): 4.5 µM; IC50 (Trypanosoma cruzi [3]): 3 µM
N#Cc1cc2c(cc1N1CCN(Cc3ccc4c(c3)OCO4)CC1)[n+]([O-])c1ccc(Cl)cc1[n+]2[O-],33,
N#Cc1cc2c(cc1N1CCN(c3ccc([N+](=O)[O-])cc3)CC1)[n+]([O-])c1ccc(Cl)cc1[n+]2[O-],3,
COc1ccc2c(c1)[n+]([O-])c1cc(C#N)c(N3CCN(c4ccc([N+](=O)[O-])cc4)CC3)cc1[n+]2[O-],19,

SMILES,PGI (Trypanosoma cruzi [1]) [%],further results
CCN(CC)CCCC(C)Nc1c2ccc(Cl)cc2nc2ccc(OC)cc12 (stereo not drawn),,inhibition [4]: inactive
Cc1cc2c(cc1C(=O)N1CCN(c3ccccc3)CC1)[n+]([O-])c1cc(Cl)c(Cl)cc1[n+]2[O-],47,
c1ccc(CNc2nc(NCc3ccccc3)c3nc4ccccc4nc3n2)cc1,31,
Cc1ccc2nc3cc(N)c(C#N)cc3nc2c1,0,
Cc1cc2c(cc1C)[n+]([O-])c1cc(/C=N/NC(=O)NCCc3ccccc3)ccc1[n+]2[O-],17,
CC(=O)c1cc2c(cc1C)[n+]([O-])c1cc(Cl)ccc1[n+]2[O-],51,
N#Cc1cc2c(cc1N)[n+]([O-])c1ccc(/C=N/NC(=O)NCCc3ccccc3)cc1[n+]2[O-],11,
Cc1cc2c(cc1C)[n+]([O-])c1cc(NCCCN(C)C)c(C#N)cc1[n+]2[O-],1,
Cc1cc2c(cc1C)[n+]([O-])c1cc(N3CCN(c4ccc([N+](=O)[O-])cc4)CC3)c(C#N)cc1[n+]2[O-],0,
COc1ccc2c(c1)[n+]([O-])c1cc(C#N)c(N)cc1[n+]2[O-],25,
CC1CS(=O)(=O)CCN1/N=C/c1ccc([N+](=O)[O-])o1 (stereo not drawn) [NIFURTIMOX],,IC50 (Trypanosoma cruzi [2]): 7.7 µM; IC50 (Trypanosoma cruzi [3]): 3.4 µM
N#Cc1cc2c(cc1Nc1ccccc1)[n+]([O-])c1ccc(Cl)cc1[n+]2[O-],63,
CC(=O)c1cc2c(cc1C)[n+]([O-])c1cc(F)ccc1[n+]2[O-],22,
CN(C)CCCNc1cc2c(cc1C#N)[n+]([O-])c1cc(Cl)ccc1[n+]2[O-],16,
COc1ccccc1N1CCN(c2cc3c(cc2C#N)[n+]([O-])c2cc(Cl)ccc2[n+]3[O-])CC1,100,IC50 (Trypanosoma cruzi [2]): 6.5 µM; IC50 (Trypanosoma cruzi [3]): 9.5 µM
COCCNC(=O)N/N=C/c1ccc2c(c1)[n+]([O-])c1cc(C#N)c(N)cc1[n+]2[O-],20,
N#Cc1cc2c(cc1N)[n+]([O-])c1ccccc1[n+]2[O-],25,
